pIC50: −log10 of the molar value. Values belong to the molecule of their own block, whether it stands above or below them.
Molecular target: T1, G1 APOL1 (Homo sapiens, UniProt O14791, I384M/S342G)
T1 construct: expressed in transfected cells
T1 sequence (O14791 28-398 S342G/I384M): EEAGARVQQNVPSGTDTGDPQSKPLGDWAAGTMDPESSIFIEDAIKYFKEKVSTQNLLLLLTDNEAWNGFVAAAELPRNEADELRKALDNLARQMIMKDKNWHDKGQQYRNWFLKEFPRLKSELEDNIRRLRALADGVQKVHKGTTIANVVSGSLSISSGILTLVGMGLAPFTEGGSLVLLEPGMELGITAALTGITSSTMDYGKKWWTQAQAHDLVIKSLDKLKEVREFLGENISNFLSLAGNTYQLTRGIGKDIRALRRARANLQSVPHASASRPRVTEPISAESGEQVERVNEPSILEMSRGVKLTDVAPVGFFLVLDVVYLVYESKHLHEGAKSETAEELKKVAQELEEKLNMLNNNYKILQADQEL
Assay: Acute APOL1 Thallium Assay with inducible stable clones of HEK 293 cells
Type: cell-based
Settings: HEK 293 T-Rex inducible stable clone expressing G1 APOL1; read-out: Thallium Assay (IC50)
Method in brief: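 APOL1 pore function was measured as thallium influx, detected by a Tl+-sensitive fluorescent dye loaded as AM ester, on a FLIPR Tetra after Tl+ addition. Cells were HEK T-Rex G1 APOL1 clone DC3.25, 26,000 per well, induced with tetracycline at plating in Opti-MEM assay medium.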

SMILES: CS(=O)(=O)CCC(=O)N[C@H]1C[C@@H](c2c(-c3ccc(F)cc3)[nH]c3c(F)cc(F)cc32)C1 [Compound 54]
pIC50: < 6.00

SMILES: CC(C(=O)N[C@H]1C[C@@H](c2c(-c3ccc(F)cc3)[nH]c3c(F)cc(F)cc32)C1)N(C)C (mixture of isomers) [Compound 77]
pIC50: < 6.00

SMILES: O=C(N[C@H]1C[C@H](Cc2c(-c3ccc(F)cc3)[nH]c3c(F)cc(F)cc23)C1)C1(CO)CC1 [Compound 159, N-[3-[[5,7-difluoro-2-(4-fluorophenyl)-1H-indol-3-yl]methyl]cyclobutyl]-1-(hydroxymethyl)cyclopropanecarboxamide]
pIC50: < 6.00

SMILES: Fc1ccc(-c2[nH]c3c(F)cc(F)cc3c2C2CC(CNC3CCOC3)C2)cc1 (centres unmarked) [Compound 396]
pIC50: < 6.00

SMILES: NC(=O)C1(C(=O)NC[C@H]2C[C@H](c3c(-c4ccc(F)cc4)[nH]c4c(F)cc(F)cc43)C2)CC1 [Compound 452]
pIC50: < 6.00

SMILES: O=C1C=C(NC[C@H]2C[C@H](c3c(-c4ccc(F)cc4)[nH]c4c(F)cc(F)cc43)C2)C(=O)N1 [Compound 421, 3-((((1r,3r)-3-(5,7-difluoro-2-(4-fluorophenyl)-1H-indol-3-yl)cyclobutyl)methyl)amino)-1H-pyrrole-2,5-dione]
pIC50: < 6.00

SMILES: O=C(CC1(O)CCCCC1)N[C@H]1C[C@@H](c2c(-c3ccc(F)cc3)[nH]c3c(F)cc(F)cc32)C1 [Compound 47]
pIC50: < 6.00

SMILES: Nc1nonc1C(=O)NC[C@H]1C[C@H](c2c(-c3ccc(F)cc3)[nH]c3c(F)cc(F)cc32)C1 [Compound 329]
pIC50: < 6.00

SMILES: O=C1CCC[C@@H](C(=O)NC[C@H]2C[C@H](c3c(-c4ccc(F)cc4)[nH]c4c(F)cc(F)cc43)C2)N1 [Compound 253]
pIC50: < 6.00

SMILES: NS(=O)(=O)CCC(=O)N[C@H]1C[C@@H](c2c(-c3ccc(F)cc3)[nH]c3c(F)cc(F)cc32)C1 [Compound 51]
pIC50: < 6.00

SMILES: O=C1c2ccccc2C(=O)N1CCS(=O)(=O)NC[C@H]1C[C@H](c2c(-c3ccc(F)cc3)[nH]c3c(F)cc(F)cc32)C1 [Compound 420]
pIC50: < 6.00

Next, values leading:

pIC50: < 6.00
SMILES: CC(C)(C)OC(=O)N[C@@H](C(=O)NC[C@H]1C[C@H](c2c(-c3ccc(F)cc3)[nH]c3c(F)cc(F)cc32)C1)C1CC1 [Compound 277]

pIC50: > 6.60
SMILES: OC[C@H]1C[C@H](c2c(-c3ccc(F)cc3)[nH]c3c(F)cc(F)cc32)C1 [Compound 425, [3-[5,7-difluoro-2-(4-fluorophenyl)-1H-indol-3-yl]cyclobutyl]methanol]

pIC50: > 6.60
SMILES: CC(C)(O)C(=O)N[C@H]1C[C@H](c2c(-c3ccc(F)cc3)[nH]c3c(F)cc(F)cc32)C1 [Compound 133]

pIC50: 6.00 to 6.60
SMILES: CC(O)CCNS(=O)(=O)NC[C@H]1C[C@H](c2c(-c3ccc(F)cc3)[nH]c3c(F)cc(F)cc32)C1 (some centres unmarked) [Compound 356]

pIC50: 6.00 to 6.60
SMILES: CC(C)(C)OC(=O)NCC(=O)NC[C@H]1C[C@@H](c2c(-c3ccc(F)cc3)[nH]c3c(F)cc(F)cc32)C1 [Compound 212]

pIC50: > 6.60
SMILES: Cc1cc(-c2[nH]c3c(F)cc(F)cc3c2C2CC(CN)C2)ccc1F (centres unmarked) [Compound 179]

pIC50: 6.00 to 6.60
SMILES: O=C(N[C@H]1C[C@@H](c2c(-c3ccc(F)cc3)[nH]c3c(F)cc(F)cc32)C1)c1cn[nH]c1 [Compound 73]

pIC50: 6.00 to 6.60
SMILES: CC(C)(O)C(=O)N[C@H]1C[C@@H](c2c(-c3ccc(F)cc3)[nH]c3c(F)cc(F)cc32)C1 [Compound 74]

pIC50: 6.00 to 6.60
SMILES: O=C(N[C@H]1C[C@H](c2c(-c3ccc(F)cc3)[nH]c3c(F)cc(F)cc32)C1)C1COC1 [Compound 131]

pIC50: 6.00 to 6.60
SMILES: O[C@H]1C[C@@H](c2c(-c3ccc(F)cc3)[nH]c3c(F)cc(F)cc32)C1 [Compound 175, (1s,3s)-3-(5,7-difluoro-2-(4-fluorophenyl)-1H-indol-3-yl)cyclobutan-1-ol]

pIC50: 6.00 to 6.60
SMILES: NC1CC(c2c(-c3ccc(OC(F)(F)F)cc3)[nH]c3c(F)cc(F)cc23)C1 (centres unmarked) [Compound 8, 3-[5,7-difluoro-2-[4-(trifluoromethoxy)phenyl]-1H-indol-3-yl]cyclobutanamine]

pIC50: 6.00 to 6.60
SMILES: O[C@H]1C[C@H](NCC2CC(c3c(-c4ccc(F)cc4)[nH]c4c(F)cc(F)cc34)C2)C1 (some centres unmarked) [Compound 387]

— patent US12281102B2, “Inhibitors of APOL1 and methods of using same” (Vertex Pharmaceuticals Incorporated, priority 2020, dated 2025)
